The results in this text go back to patent US9073821B2, “Hydroxamic acid derivative” (priority 2010, dated 2015).

Each structure is given as a SMILES string. pIC50: −log10 of the molar value.

One experiment deals with Pseudomonas aeruginosa LpxC enzyme (Pseudomonas aeruginosa (strain ATCC 15692 / DSM 22644 / CIP 104116 / JCM 14847 / LMG 12228 / 1C / PRS 101 / PAO1), UniProt P47205). The experiment in a line: biochemical. Format: biochemical. The settings on record: class symbols A/B/C by IC50; Table 3; read-out: Enzyme inhibitory activity (inhibitory activity on Pseudomonas aeruginosa LpxC enzyme).
As for `CNC(=O)C(C(=O)NO)N(C)C(=O)c1ccc(C#Cc2ccc(CN(C)Cc3ccccc3)cc2)cc1` (stereo not drawn) [Compound 495, 2-[({4-[(4-{[benzyl(methyl)amino]methyl}phenyl)ethynyl]phenyl}carbonyl)(methyl)amino]-N-hydroxy-N′-methylpropanediamide], the pIC50 was more than 8.00.

`CNC(=O)C(C(=O)NO)N(C)C(=O)c1ccc(C#Cc2ccc(N3CCC(N4CCOCC4)CC3)cc2)cc1` (stereo not drawn) [Compound 496, N-hydroxy-N′-methyl-2-(methyl {[4-({4-[4-(morpholin-4-yl)piperidin-1-yl]phenyl}ethynyl)phenyl]carbonyl}amino)propanediamide]: the pIC50 was more than 8.00.

For `CNC(=O)C(C(=O)NO)N(C)C(=O)c1ccc(-c2ccc(-c3ccc(CO)o3)cc2)cc1` (stereo not drawn) [Compound 499, N-hydroxy-2-[({4′-[5-(hydroxymethyl)furan-2-yl]biphenyl-4-yl}carbonyl)(methyl)amino]-N′-methylpropanediamide], the pIC50 is more than 8.00.

As to `CCO/N=C/c1ccc(C#Cc2ccc(C(=O)N(C)C(C(=O)NC)C(=O)NO)cc2)o1` (stereo not drawn) [Compound 501, 2-[{[4-({5-[(E)-(ethoxyimino)methyl]furan-2-yl}ethynyl)phenyl]carbonyl}(methyl)amino]-N-hydroxy-N′-methylpropanediamide], the pIC50 is more than 8.00.

`CNC(=O)C(C(=O)NO)N(C)C(=O)c1ccc(-c2ccc(CCCN3CCCOCC3)cc2)cc1` (stereo not drawn) [Compound 502, N-hydroxy-N′-methyl-2-[methyl({4′-[3-(1,4-oxazepan-4-yl)propyl]biphenyl-4-yl}carbonyl)amino]propanediamide]: the pIC50 was 7.00 to 8.00.

As to `CNC(=O)C(C(=O)NO)N(C)C(=O)c1ccc(C#CC2CC2)cc1` (stereo not drawn) [Compound 503, 2-[{[4-(cyclopropylethynyl)phenyl]carbonyl}(methyl)amino]-N-hydroxy-N′-methylpropanediamide], the pIC50 is less than 7.00.

As for `CNC(=O)C(C(=O)NO)N(C)C(=O)c1ccc(C#Cc2cnn(C)c2)cc1` (stereo not drawn) [Compound 504, N-hydroxy-N′-methyl-2-[methyl({4-[(1-methyl-1H-pyrazol-4-yl)ethynyl]phenyl}carbonyl)amino]propanediamide], the pIC50 was 7.00 to 8.00.

Consider `CNC(=O)C(C(=O)NO)N(C)C(=O)c1ccc(C#Cc2ccc(CN3CC(OC)C3)cc2)cc1` (stereo not drawn) [Compound 505, N-hydroxy-2-[{[4-({4-[(3-methoxyazetidin-1-yl)methyl]phenyl}ethynyl)phenyl]carbonyl}(methyl)amino]-N′-methylpropanediamide], for which the pIC50 was more than 8.00.

Take `CCO/N=C/c1cc(C#Cc2ccc(C(=O)N(C)C(C(=O)NC)C(=O)NO)cc2)co1` (stereo not drawn) [Compound 506, 2-[{[4-({5-[(E)-(ethoxyimino)methyl]furan-3-yl}ethynyl)phenyl]carbonyl}(methyl)amino]-N-hydroxy-N′-methylpropanediamide]: the pIC50 is more than 8.00.

With `CNC(=O)C(C(=O)NO)N(C)C(=O)c1ccc(C#Cc2ccc(COCC(C)(C)N)cc2)cc1` (stereo not drawn) [Compound 508, 2-[{[4-({4-[(2-amino-2-methylpropoxy)methyl]phenyl}ethynyl)phenyl]carbonyl}(methyl)amino]-N-hydroxy-N′-methylpropanediamide], the pIC50 is 7.00 to 8.00.

Regarding `CCCC(C)(C)CNCc1ccc(C#Cc2ccc(C(=O)N(C)C(C(=O)NC)C(=O)NO)cc2)cc1` (stereo not drawn) [Compound 510, 2-[({4-[(4-{[(2,2-dimethylpentyl)amino]methyl}phenyl)ethynyl]phenyl}carbonyl)(methyl)amino]-N-hydroxy-N′-methylpropanediamide], the pIC50 was more than 8.00.

As to `CNC(=O)C(C(=O)NO)N(C)C(=O)c1ccc(C#CC#Cc2cnn(C)c2)cc1` (stereo not drawn) [Compound 511, N-hydroxy-N′-methyl-2-[methyl({4-[4-(1-methyl-1H-pyrazol-4-yl)buta-1,3-diyn-1-yl]phenyl}carbonyl)amino]propanediamide], the pIC50 was more than 8.00.

For `CNC(=O)C(C(=O)NO)N(C)C(=O)c1ccc(C#Cc2ccc(CN3CCCC(C)(C)C3)cc2)cc1` (stereo not drawn) [Compound 513, 2-[{[4-({4-[(3,3-dimethylpiperidin-1-yl)methyl]phenyl}ethynyl)phenyl]carbonyl}(methyl)amino]-N-hydroxy-N′-methylpropanediamide], the pIC50 was more than 8.00.

In the case of `CNC(=O)C(C(=O)NO)N(C)C(=O)c1ccc(C#Cc2coc(COC)c2)cc1` (stereo not drawn) [Compound 514, N-hydroxy-2-{[(4-{[5-(methoxymethyl)furan-3-yl]ethynyl}phenyl)carbonyl](methyl)amino}-N′-methylpropanediamide], the pIC50 is more than 8.00.

In the case of `CNC(=O)C(C(=O)NO)N(C)C(=O)c1ccc(C#Cc2ccc(CN3CC4CC4C3)cc2)cc1` (stereo not drawn) [Compound 515, 2-{[(4-{[4-(3-azabicyclo[3.1.0]hex-3-ylmethyl)phenyl]ethynyl}phenyl)carbonyl](methyl)amino}-N-hydroxy-N′-methylpropanediamide], the pIC50 was more than 8.00.

Take `CCN1Cc2cc(C#Cc3ccc(C(=O)N(C)C(C(=O)NC)C(=O)NO)cc3)ccc2[C@H]1C` (stereo partly drawn) [Compound 516, 2-{[(4-{[(1R)-2-ethyl-1-methyl-2,3-dihydro-1H-isoindol-5-yl]ethynyl}phenyl)carbonyl](methyl)amino}-N-hydroxy-N′-methylpropanediamide]: the pIC50 is 7.00 to 8.00.

As for `CCn1cc(C#Cc2ccc(C(=O)N(C)C(C(=O)NC)C(=O)NO)cc2)cn1` (stereo not drawn) [Compound 517, 2-[({4-[(1-ethyl-1H-pyrazol-4-yl)ethynyl]phenyl}carbonyl)(methyl)amino]-N-hydroxy-N′-methylpropanediamide], the pIC50 was 7.00 to 8.00.

On to `CNC(=O)C(C(=O)NO)N(C)C(=O)c1ccc(C#Cc2cnn(CCOC)c2)cc1` (stereo not drawn) [Compound 518, N-hydroxy-2-{[(4-{[1-(2-methoxyethyl)-1H-pyrazol-4-yl]ethynyl}phenyl)carbonyl](methyl)amino}-N′-methylpropanediamide], for which the pIC50 is 7.00 to 8.00.

On to `CN(C(=O)c1ccc(C#Cc2ccc(CN3CCCOCC3)cc2)cc1)C(C(=O)NO)C(=O)NCc1ccccn1` (stereo not drawn) [Compound 520, N-hydroxy-2-{methyl[(4-{[4-(1,4-oxazepan-4-ylmethyl)phenyl]ethynyl}phenyl)carbonyl]amino}-N′-(pyridin-2-ylmethyl)propanediamide], for which the pIC50 was more than 8.00.

On to `CN(C(=O)c1ccc(C#Cc2ccc(CN3CCCOCC3)cc2)cc1)C(C)(C(=O)NO)C(=O)NCc1ccccn1` (stereo not drawn) [Compound 521, N-hydroxy-2-methyl-2-{methyl[(4-{[4-(1,4-oxazepan-4-ylmethyl)phenyl]ethynyl}phenyl)carbonyl]amino}-N′-(pyridin-2-ylmethyl)propanediamide], for which the pIC50 was more than 8.00.

For the molecule `CNC(=O)C(C(=O)NO)N(C)C(=O)c1ccc(C#CC2=CCCCC2)cc1` (stereo not drawn) [Compound 523, 2-[{[4-(cyclohex-1-en-1-ylethynyl)phenyl]carbonyl}(methyl)amino]-N-hydroxy-N′-methylpropanediamide], the pIC50 was 7.00 to 8.00.

The same experiment, now with this note: inhibitory activity on Pseudomonas aeruginosa LpxC enzyme, class symbols A/B/C; read-out: Enzyme inhibitory activity.
Take `CNC(=O)C(C(=O)NO)N(C)C(=O)c1ccc(-c2ccc(-c3ccc(CN4CCOCC4)o3)cc2)cc1` (stereo not drawn) [Compound 479, N-hydroxy-N′-methyl-2-[methyl({4′-[5-(morpholin-4-ylmethyl)furan-2-yl]biphenyl-4-yl}carbonyl)amino]propanediamide]: the pIC50 was more than 8.00.

For `CNC(=O)C(C(=O)NO)N(C)C(=O)c1ccc(C#Cc2ccc(CNCc3cc(C)on3)cc2)cc1` (stereo not drawn) [Compound 482, N-hydroxy-N′-methyl-2-{methyl[(4-{[4-({[(5-methyl-1,2-oxazol-3-yl)methyl]amino}methyl)phenyl]ethynyl}phenyl)carbonyl]amino}propanediamide], the pIC50 is more than 8.00.

On to `CNC(=O)C(C(=O)NO)N(C)C(=O)c1ccc(C#Cc2coc(CN3CCOCC3)c2)cc1` (stereo not drawn) [Compound 483, N-hydroxy-N′-methyl-2-{methyl[(4-{[5-(morpholin-4-ylmethyl)furan-3-yl]ethynyl}phenyl)carbonyl]amino}propanediamide], for which the pIC50 was more than 8.00.

With `CNC(=O)C(C(=O)NO)N(C)C(=O)c1ccc(C#CC#Cc2ccoc2)cc1` (stereo not drawn) [Compound 484, 2-[({4-[4-(furan-3-yl)buta-1,3-diyn-1-yl]phenyl}carbonyl)(methyl)amino]-N-hydroxy-N′-methylpropanediamide], the pIC50 was more than 8.00.

On to `CNC(=O)C(C(=O)NO)N(C)C(=O)c1ccc(C#Cc2ccc(CNCc3ncco3)cc2)cc1` (stereo not drawn) [Compound 485, N-hydroxy-N′-methyl-2-[methyl({4-[(4-{[(1,3-oxazol-2-ylmethyl)amino]methyl}phenyl)ethynyl]phenyl}carbonyl)amino]propanediamide], for which the pIC50 is more than 8.00.

In the case of `CNC(=O)C(C(=O)NO)N(C)C(=O)c1ccc(C#Cc2coc(CNCC(F)(F)F)c2)cc1` (stereo not drawn) [Compound 488, N-hydroxy-N′-methyl-2-[methyl({4-[(5-{[(2,2,2-trifluoroethyl)amino]methyl}furan-3-yl)ethynyl]phenyl}carbonyl)amino]propanediamide], the pIC50 was more than 8.00.

Turning to `CNC(=O)C(C(=O)NO)N(C)C(=O)c1ccc(C#Cc2ccc(CN3Cc4ccccc4C3)cc2)cc1` (stereo not drawn) [Compound 489, 2-{[(4-{[4-(1,3-dihydro-2H-isoindol-2-ylmethyl)phenyl]ethynyl}phenyl)carbonyl](methyl)amino}-N-hydroxy-N′-methylpropanediamide], the pIC50 is more than 8.00.

On to `CNC(=O)C(C(=O)NO)N(C)C(=O)c1ccc(C#CC#Cc2ccc(CN3CCN(C)CC3)cc2)cc1` (stereo not drawn) [Compound 492, N-hydroxy-N′-methyl-2-(methyl {[4-(4-{4-[(4-methylpiperazin-1-yl)methyl]phenyl}buta-1,3-diyn-1-yl)phenyl]carbonyl}amino)propanediamide], for which the pIC50 is more than 8.00.

For `CNC(=O)C(C(=O)NO)N(C)C(=O)c1ccc(C#CC#Cc2ccc(CNCC(C)(C)C)cc2)cc1` (stereo not drawn) [Compound 493, 2-[({4-[4-(4-{[(2,2-dimethylpropyl)amino]methyl}phenyl)buta-1,3-diyn-1-yl]phenyl}carbonyl)(methyl)amino]-N-hydroxy-N′-methylpropanediamide], the pIC50 was more than 8.00.
